Among the data in patent publication US9233961B2, “Compounds and compositions for the treatment of parasitic diseases” (Novartis AG, priority 2013, dated 2016) are EC50 values, retold here.

pEC50: −log10 of the molar value. Read-outs that look alike come from different tables or passages of the source.

Test [1] relates to Leishmania donovani axenic amastigote parasites. Nature of the test: Leishmania donovani axenic amastigote proliferation assay. Format: cell-based. The procedure: Leishmania Donovani Axenic Amastigote Proliferation Assay
Leishmania donovani axenic amastigote parasites are grown at 37° C., 5% CO2 in media made of RPMI 1640, 4 mM L-glutamine, 20% heat inactivated FBS, 100 units/ml of penicillin and 100 μg/ml of streptomycin, 23 μM Folic Acid, 100 μM Adenosine, 22 mM D-glucose, 25 mM MES. The pH of media is adjusted to 5.5 at 37° C. using HCl. 20 μL of media is first dispensed into 384 well plates and 100 nL of the compounds of invention in DMSO are added to the plate wells. At the same time control compounds and DMSO are added to plates to serve as the positive and negative controls, respectively. 40 μL of parasite culture (9600 parasites) are then added to the plate wells. The plates are then placed into incubators. After 2 day incubation, 20 μL of Cell TiterGlo (Promega) is added to the plate wells. The luminescence signal of each well is measured using the Envision reader (Perkin Elmer). The percentage inhibition of 50%, EC50, is calculated for each of the compounds.

Test [2] relates to L. donovani HU3 strain in mouse peritoneal macrophages. As to the kind of experiment: Assay for proliferation of Leishmania parasites in mouse peritoneal macrophages. Format: cell-based, Leishmania donovani. Particulars: Leishmania donovani, Peritoneal macrophage; for pEC50: read-out: L. donavani Macrophage EC50; for EC50: read-out: L. donavani Macrophage EC50 (μM). From the text: Assay for Proliferation of Leishmania Parasites
The activity of a compound according to the present invention for inhibition of parasitemai can be assessed by the parasite proliferation assay. The assay measures the increase in the parasite number in the assayed plate well using a DNA intercalating dye, SYBR Green I® dye (INVITROGEN) to stain Leishmania cell nuclei. It is understood that the assays illustrate the invention without in any way limiting the scope of the invention.
L. donovani HU3 strain is propagated by infecting BALB/c mice through tail vein injection with 10^7 Leishmania parasites. Infected mice are allowed to develop infection during 9-11 weeks post-infection. During this time, the parasites accumulate in the infected mouse spleens to large numbers, and the infected mice serve as the source of parasites for the in vitro measurement of compound efficacies. To assay a compound for anti-leishmanial activity, peritoneal macrophages isolated from non-infected BALB/c mice are seeded into 384-well plates at density 2×10^4 macrophages per well in […] of medium (RPMI 1640, 10% […], 10 mM HEPES, 1 mM sodium pyruvate, 1% Pen/Strep). Subsequently, the seeded plates are placed into an incubator set to maintain 37° C. temperature and atmosphere with 5% CO2. The next day, Leishmania parasites are isolated from the spleens of mice infected for 9-11 weeks and 4×10^5 isolated parasites in […] of the above media are added to each plate well. Plates are then returned into incubators and infection is allowed to proceed for 24 hours. After the infection of macrophages is completed, […] of compounds of the invention in the above medium, which also contains 5% DMSO, are added to plate wells containing infected macrophages. At the same time control compounds (miltefosine and amphotericin B) and DMSO are added to plates to serve as the positive and negative controls, respectively. After the compound addition, the plates are returned into incubator and cells infected with parasites are cultured for 5 days. At the end of cultivation, […] of 8% paraformaldehyde is added to plate wells and incubated for 15 min at room temperature. Following the incubation, the paraformaldehyde from plate wells is aspirated, and […] of PBS containing 0.2% Triton X-100 is added to wells. After 15 min incubation, the solution is aspirated from wells again, and replaced with SybrGreen Dye solution in PBS (1:125,000 dilution). Infected cells are imaged with Evotec Opera high-content microscope, and the number of parasites in well is determined by counting parasite nuclei visualized by staining with SybrGreen dye. The percentage inhibition of 50%, EC50, is calculated for each compound.
The inhibitory efficacy of the compounds of the invention in delaying the proliferation of L. donovani in mouse peritoneal macrophages is provided in Table I, infra.

The mark [3] stands for this setting: axenic amastigotes in vitro, read-out: L. donovani amastigotes EC50.

As to `CC(C)(CN)c1ccc(-c2cnc3nc(-c4cc(NC(=O)N5CCCC5)ccc4Cl)[nH]c3c2)cc1` [Compound 304], the figures for the negative-log EC50 (pEC50) in test [1] (setting [3]) and in test [2] were 5.02 and 5.33, respectively.
The matching figures for `CC(C)C(=O)Nc1ccc(-c2cnc3nc(-c4cc(NC(=O)c5ccco5)ccc4Cl)[nH]c3c2)cc1` [Compound 53]: 6.95 and 6.81.
In the case of `CC(=O)Nc1ccc(-c2cnc3nc(-c4cc(NC(=O)c5ccco5)ccc4Cl)[nH]c3c2)cc1` [Compound 18], the values for the pEC50 in test [1] (setting [3]) and in test [2] were 6.52 and 5.83, respectively.
The matching figures for `Cc1cnc2nc(-c3cc(NC(=O)c4ccnc(C)c4C)ccc3Cl)[nH]c2c1` [Compound 189]: less than 4.60 and less than 4.54.
On to `CNc1ccc(F)c(-c2nc3ncc(-c4ccc(OCCN5CCOCC5)cc4)cc3o2)c1` [Example 421, 4-Fluoro-N-methyl-3-(6-{4-[2-(morpholin-4-yl)ethoxy]phenyl}-[1,3]oxazolo[4,5-b]pyridin-2-yl)aniline], for which the pEC50 (as a rule, −log10 of the EC50, conventionally taken in molar units) in test [1] (setting [3]) is less than 4.60. Also, the EC50 (as a rule, the midpoint of the concentration-response curve) in test [2] was greater than 50 µM.
On to `CNC(=O)c1ccc(-c2cnc3nc(-c4cc(NC(=O)c5ccco5)ccc4Cl)[nH]c3c2)cn1` [Compound 54], for which the pEC50 in test [1] (setting [3]) was 6.65; in test [2] it was 6.57.
The matching figures for `O=C(Nc1ccc(Cl)c(-c2nc3ncc(-c4cccc(OCCN5CCOCC5)c4)cc3[nH]2)c1)N1CCCC1` [Compound 301]: 6.04 and 5.98.
The matching figures for `NC(=O)Nc1ccc(-c2cnc3nc(-c4cc(NC(=O)c5ccco5)ccc4Cl)[nH]c3c2)cc1` [Compound 32]: less than 4.60 and 4.82.
In the case of `Cc1cnc2nc(-c3cc(NC(=O)N4CC[C@@H](F)C4)ccc3Cl)[nH]c2c1` [Compound 234], the results for the pEC50 in test [1] (setting [3]) and in test [2] were 5.69 and 5.01, respectively.
The matching figures for `COC(=O)Nc1ccc(-c2cnc3nc(-c4cc(NC(=O)N5CCC5)ccc4Cl)[nH]c3c2)cc1` [Compound 344]: 5.12 and 4.77.
For `Cc1cnc2nc(-c3cc(NC(=O)c4ccc(CN(C)C)o4)ccc3Cl)[nH]c2c1` [Compound 94], the pEC50 is less than 4.60 in test [1] (setting [3]) and 5.31 in test [2].
With `O=C(Nc1ccc(C(F)(F)F)cc1)Nc1ccc(F)c(-c2nc3ncc(-c4ccc(N5CCOCC5)cc4)cc3o2)c1` [Compound 392], the pEC50 in test [1] (setting [3]) was less than 4.60; in test [2], 5.08.
Take `O=C(Nc1ccc(Cl)c(-c2nc3ncncc3[nH]2)c1)c1ccco1` [Compound 4]: the pEC50 is 5.38 in test [1] (setting [3]) and 4.59 in test [2].
For the compound `Cc1cnc2nc(-c3cc(NC(=O)c4ccc(S(C)(=O)=O)nc4)ccc3Cl)[nH]c2c1` [Compound 136], the pEC50 was less than 4.60 in test [1] (setting [3]) and less than 4.30 in test [2].
For the compound `Cc1cnc2nc(-c3cc(NC(=O)CCCN4CCOCC4)ccc3Cl)[nH]c2c1` [Compound 132], the pEC50 in test [1] (setting [3]) is less than 4.60; in test [2], less than 4.30.
For `Cc1cnc2nc(-c3cc(NC(=O)c4ccc(C(F)(F)F)cc4)ccc3Cl)[nH]c2c1` [Compound 153], the pEC50 in test [1] (setting [3]) was less than 4.60; in test [2] it was 4.83.
Take `CC(C)OC(=O)Nc1ccc(Cl)c(-c2nc3ncc(-c4ccccc4)cc3[nH]2)c1` [Example 333, Propan-2-yl N-(4-chloro-3-{6-phenyl-1H-imidazo[4,5-b]pyridin-2-yl}phenyl)carbamate]: the pEC50 in test [1] (setting [3]) was 6.18; in test [2], 7.32.
`Cc1cnc2nc(-c3cc(NC(=O)N4CC[C@H](F)C4)ccc3Cl)[nH]c2c1` [Compound 235]: the pEC50 is 5.46 in test [1] (setting [3]) and 5.06 in test [2].
Consider `O=C(Nc1ccc(Cl)c(-c2nc3ncc(-c4ccc(OCCCN5CCOCC5)cc4)cc3[nH]2)c1)N1CCCC1` [Compound 302], for which the pEC50 was 5.23 in test [1] (setting [3]) and 5.00 in test [2].
The matching figures for `O=C(Nc1ccc(F)c(-c2nc3ncc(Cl)cc3[nH]2)c1)c1ccco1` [Example 357, N-(3-{6-chloro-1H-imidazo[4,5-b]pyridin-2-yl}-4-fluorophenyl)furan-2-carboxamide]: 6.22 and 5.60.
Consider `Cc1cnc2nc(-c3cc(NC(=O)[C@@H]4CCCN4)ccc3F)[nH]c2c1` [Compound 273], for which the pEC50 in test [1] (setting [3]) was less than 4.60; in test [2], less than 4.30.
Consider `CC(C)OC(=O)Nc1ccc(Cl)c(-c2nc3ncc(C#N)cc3n2C(=O)OC(C)C)c1` [Compound 288], for which the pEC50 in test [1] (setting [3]) was 5.80; in test [2], 6.89.
The matching figures for `CN(C)CCn1c(-c2cc(NC(=O)N3CCCC3)ccc2Cl)nc2ncc(Br)cc21` [Compound 387]: less than 4.60 and less than 4.30.
As to `O=C(Nc1ccc(Cl)c(-c2nc3ncc(C(F)(F)F)cc3[nH]2)c1)c1cnccn1` [Compound 285], the pEC50 in test [1] (setting [3]) was 6.14; in test [2], 5.30.
Regarding `Cc1n[nH]cc1-c1cnc2nc(-c3cc(NC(=O)Nc4ccc(C(F)(F)F)cc4)ccc3F)oc2c1` [Compound 394], the pEC50 is 4.93 in test [1] (setting [3]) and 5.32 in test [2].
The matching figures for `O=C(Nc1ccc(Cl)c(-c2nc3ncc(-c4ccc(OCCn5cccn5)cc4)cc3[nH]2)c1)c1ccco1` [Compound 40]: 6.21 and 6.01.
The matching figures for `O=C(Nc1ccc(C(F)(F)F)cc1)Nc1ccc(F)c(-c2nc3ncc(-c4ccc(N5CCCCC5)cc4)cc3o2)c1` [Compound 399]: 4.80 and 5.23.
In the case of `CN(C)c1ccc(F)c(-c2nc3ncc(-c4ccc(OCCN5CCOCC5)cc4)cc3o2)c1` [Example 420, 4-Fluoro-N,N-dimethyl-3-(6-{4-[2-(morpholin-4-yl)ethoxy]phenyl}-[1,3]oxazolo[4,5-b]pyridin-2-yl)aniline], in test [1] (setting [3]), the pEC50 is less than 4.60. Also, the EC50 in test [2] is greater than 50 µM.
With `O=C(Nc1ccc(Cl)c(-c2nc3ncc(-c4ccsc4)cc3[nH]2)c1)N1CCCC1` [Compound 300], the pEC50 in test [1] (setting [3]) is 6.84; in test [2] it was 6.54.
For `CC(C)CC(=O)Nc1ccc(-c2cnc3nc(-c4cc(NC(=O)c5ccco5)ccc4Cl)[nH]c3c2)cc1` [Compound 13, N-(4-chloro-3-{6-[4-(3-methylbutanamido)phenyl]-1H-imidazo[4,5-b]pyridin-2-yl}phenyl)furan-2-carboxamide], the pEC50 in test [1] (48 h, L. donovani axenic amastigotes, 2 day incubation, Cell TiterGlo luminescence, read-out: EC50) is roughly 7.10; in test [1] (setting [3]), 7.08; in test [2] it was 6.94.
Regarding `CC(C)Cc1cnc2nc(-c3cc(NC(=O)c4ccco4)ccc3Cl)[nH]c2c1` [Compound 76], the pEC50 in test [1] (setting [3]) was less than 4.60; in test [2], less than 4.30.
The matching figures for `CNC(=O)c1ccc(-c2cnc3nc(-c4cc(NC(=O)c5ccco5)ccc4Cl)[nH]c3c2)cc1` [Compound 64]: 6.17 and less than 4.54.
The matching figures for `O=C(Nc1ccc(Cl)c(-c2nc3ncc(-c4ccc(-n5cccn5)cc4)cc3[nH]2)c1)c1ccco1` [Compound 56]: 5.49 and 4.80.
The matching figures for `O=C(Nc1ccc(F)c(-c2nc3ncc(-c4cnn(C5CCNCC5)c4)cc3[nH]2)c1)N1CCCC1` [Compound 298]: less than 4.60 and less than 4.30.
Consider `Cc1cc(-c2cnc3nc(-c4cc(NC(=O)c5ccco5)ccc4Cl)[nH]c3c2)cc(C)n1` [Compound 39], for which the pEC50 was 6.24 in test [1] (setting [3]) and 5.02 in test [2].
In the case of `O=C(Nc1ccc(Cl)c(-c2nc3ncc(-c4ccc5c(c4)OCO5)cc3[nH]2)c1)c1ccco1` [Compound 27], the pEC50 in test [1] (setting [3]) is 5.58; in test [2] it was 4.61.
